Target: T1, PIK3CD/PIK3R1 (p110δ/p85α) (Homo sapiens, UniProt O00329)
T1 construct: purchased Thermo Fisher Scientific (Life Technologies) SelectScreen
Assay: SelectScreen Adapta
Type: biochemical
Settings: ATP Km app
Experimental: The in vitro kinase selectivity of NU5455 was determined using the SelectScreen Broad Assay Panel (Thermo Fisher Scientific) involving activity and binding assays (Supplemental Table 1). […] Class IA PI3Ks were measured using the p85α subunit.
Kinase [ATP] % Assay Kinase [ATP] % Assay Kinase [ATP] % Assay Kinase [ATP] % Assay […]
SGK (SGK1) Km app 8.5 Z MAP4K2 (GCK) Km app 2.7 Z TLK2 n/a -0.3 L STK38 (NDR) n/a -5.9 L
MERTK (cMER) Km app 8.3 Z CDK2/cyclin A Km app 2.7 Z TGFBR1 (ALK5) n/a -0.4 L MATK (HYL) Km app -6.3 Z
FYN Km app 8.3 Z EPHA1 Km app 2.7 Z CLK3 Km app -0.5 Z ABL1 E255K Km app -6.6 Z
TEC n/a 8.1 L CDK2/cyclin E1 n/a 2.7 L MAP3K14 (NIK) n/a -0.5 L STK17A (DRAK1) n/a -6.6 L
KIT V654A n/a 8.1 L TESK2 n/a 2.7 L AKT3 (PKB gamma) Km app -0.5 Z JAK2 JH1 JH2 Km app -6.7 Z
ROS1 Km app 8.0 Z SPHK1 Km app 2.7 A MAP3K9 (MLK1) Km app -0.5 Z PRKACB (PRKAC beta) n/a -6.8 L
FGFR3 K650E Km app 7.9 Z AMPK A2/B1/G1 Km app 2.6 Z IKBKB (IKK beta) Km app -0.6 Z PDGFRA (PDGFR alpha) Km app -6.8 Z
RAF1 (cRAF) Y340D Y341D 100 7.9 Z DYRK3 Km app 2.6 Z CAMK2A (CaMKII alpha) Km app -0.6 Z NEK9 Km app -7.2 Z
PI4KA (PI4K alpha) 10 7.8 A CSNK1D (CK1 delta) Km app 2.6 Z PRKCB1 (PKC beta I) Km app -0.7 Z PDK1 Km app -7.3 Z
HIPK2 Km app 7.8 Z ACVR2A n/a 2.5 L TTK n/a -0.7 L RPS6KB1 (p70S6K) Km app -7.8 Z
CSK Km app 7.6 Z DDR2 T654M n/a 2.5 L ZAK n/a -0.7 L STK38L (NDR2) n/a -8.4 L
PRKCG (PKC gamma) Km app 7.6 Z JAK2 Km app 2.5 Z IKBKE (IKK epsilon) Km app -0.7 Z ABL1 G250E Km app -8.5 Z
SRMS (Srm) Km app 7.5 Z HIPK3 (YAK1) Km app 2.5 Z CAMK2G (CaMKII gamma) n/a -0.8 L PRKD1 (PKC mu) Km app -8.5 Z
YES1 Km app 7.4 Z AMPK (A1/B1/G2) n/a 2.4 L TLK1 n/a -0.8 L CDK5/p35 Km app -8.6 Z
RPS6KA5 (MSK1) Km app 7.4 Z MYO3B (MYO3 beta) n/a 2.3 L MAPK12 (p38 gamma) Km app -0.8 Z PDGFRA T674I Km app -8.9 Z
TNIK n/a 7.3 L PASK Km app 2.3 Z PRKCI (PKC iota) Km app -0.8 Z BLK Km app -8.9 Z
FER Km app 7.1 Z ACVRL1 (ALK1) n/a 2.3 L PKN2 (PRK2) n/a -1.0 L PRKD2 (PKD2) Km app -9.1 Z
CDK16 (PCTK1)/cyclin Y n/a 7.0 L EGFR (ErbB1) L861Q Km app 2.2 Z PIM1 Km app -1.0 Z CSNK1G2 (CK1 gamma 2) Km app -9.3 Z
MST4 Km app 6.9 Z RPS6KA3 (RSK2) Km app 2.1 Z CDK5/p25 Km app -1.1 Z ROCK1 Km app -9.5 Z
FLT1 (VEGFR1) Km app 6.5 Z STK23 (MSSK1) Km app 2.0 Z SRPK1 Km app -1.1 Z PRKCB2 (PKC beta II) Km app -9.6 Z
DYRK1A Km app 6.4 Z ALK R1275Q n/a 2.0 L BRSK1 (SAD1) Km app -1.1 Z CSNK1G1 (CK1 gamma 1) Km app -9.9 Z
PRKCD (PKC delta) Km app 6.2 Z TBK1 Km app 2.0 Z MAP3K3 (MEKK3) n/a -1.1 L ABL2 (Arg) Km app -10.3 Z
EGFR (ErbB1) Km app 6.0 Z ACVR1B (ALK4) Km app 2.0 Z AMPK A1/B1/G1 Km app -1.2 Z STK3 (MST2) Km app -10.3 Z
CDC7/DBF4 n/a 6.0 L CDK3/cyclin E1 n/a 1.9 L WNK3 n/a -1.2 L CAMK4 (CaMKIV) Km app -10.4 Z
JAK3 Km app 6.0 Z KDR (VEGFR2) Km app 1.8 Z LATS1 n/a -1.3 L MKNK1 (MNK1) Km app -10.7 Z
MAPK13 (p38 delta) Km app 5.8 Z ULK1 n/a 1.8 L DMPK n/a -1.5 L FLT3 ITD n/a -11.6 L
FRAP1 (mTOR) Km app 5.7 Z AURKB (Aurora B) Km app 1.7 Z CDK2/cyclin A1 n/a -1.6 L CHEK2 (CHK2) Km app -11.7 Z
KIT Y823D n/a 5.6 L LRRK2 Km app 1.7 A LIMK1 n/a -1.7 L LTK (TYK1) Km app -13.1 Z
ITK Km app 5.5 Z MAP2K3 (MEK3) n/a 1.6 L DYRK1B Km app -1.8 Z JAK2 JH1 JH2 V617F Km app -13.8 Z
KIT Km app 5.3 Z DAPK1 Km app 1.6 A DDR1 n/a -1.8 L EPHA8 Km app -13.8 Z
CDK7/cyclin H/MNAT1 Km app 5.3 A EPHA6 n/a 1.6 L BTK Km app -2.0 Z EGFR (ErbB1) T790M L858R Km app -14.1 Z
RET Km app 5.2 Z MAP4K1 (HPK1) n/a 1.6 L ADRBK1 (GRK2) Km app -2.0 Z MET M1250T Km app -14.5 Z […]

T1 sequence (O00329 whole entry): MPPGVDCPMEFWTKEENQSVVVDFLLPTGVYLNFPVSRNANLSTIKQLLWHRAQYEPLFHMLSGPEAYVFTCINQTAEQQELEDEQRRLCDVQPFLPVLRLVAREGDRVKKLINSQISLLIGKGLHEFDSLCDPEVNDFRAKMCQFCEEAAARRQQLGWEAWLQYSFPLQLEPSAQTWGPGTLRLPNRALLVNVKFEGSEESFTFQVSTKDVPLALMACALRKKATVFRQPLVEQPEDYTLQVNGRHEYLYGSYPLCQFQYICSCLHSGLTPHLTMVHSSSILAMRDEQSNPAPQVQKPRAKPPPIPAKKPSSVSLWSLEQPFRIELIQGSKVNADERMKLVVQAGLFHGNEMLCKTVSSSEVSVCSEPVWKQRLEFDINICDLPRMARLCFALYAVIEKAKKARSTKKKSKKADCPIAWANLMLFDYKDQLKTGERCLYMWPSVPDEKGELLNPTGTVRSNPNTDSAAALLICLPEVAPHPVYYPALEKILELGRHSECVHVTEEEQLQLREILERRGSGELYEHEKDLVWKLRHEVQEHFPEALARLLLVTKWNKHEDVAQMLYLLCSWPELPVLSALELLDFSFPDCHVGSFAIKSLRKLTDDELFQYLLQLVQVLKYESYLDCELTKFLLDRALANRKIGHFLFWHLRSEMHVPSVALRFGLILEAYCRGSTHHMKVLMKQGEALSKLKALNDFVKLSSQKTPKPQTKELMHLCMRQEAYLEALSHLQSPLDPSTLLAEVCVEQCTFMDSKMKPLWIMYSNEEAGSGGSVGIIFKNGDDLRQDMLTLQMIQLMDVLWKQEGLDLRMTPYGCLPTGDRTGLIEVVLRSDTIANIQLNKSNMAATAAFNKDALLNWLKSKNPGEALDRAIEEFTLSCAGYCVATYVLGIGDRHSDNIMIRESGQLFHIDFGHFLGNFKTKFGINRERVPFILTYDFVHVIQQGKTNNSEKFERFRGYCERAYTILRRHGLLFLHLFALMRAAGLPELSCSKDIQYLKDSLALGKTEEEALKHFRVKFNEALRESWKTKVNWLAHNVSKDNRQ
T1 sequence (P27986 whole entry partner): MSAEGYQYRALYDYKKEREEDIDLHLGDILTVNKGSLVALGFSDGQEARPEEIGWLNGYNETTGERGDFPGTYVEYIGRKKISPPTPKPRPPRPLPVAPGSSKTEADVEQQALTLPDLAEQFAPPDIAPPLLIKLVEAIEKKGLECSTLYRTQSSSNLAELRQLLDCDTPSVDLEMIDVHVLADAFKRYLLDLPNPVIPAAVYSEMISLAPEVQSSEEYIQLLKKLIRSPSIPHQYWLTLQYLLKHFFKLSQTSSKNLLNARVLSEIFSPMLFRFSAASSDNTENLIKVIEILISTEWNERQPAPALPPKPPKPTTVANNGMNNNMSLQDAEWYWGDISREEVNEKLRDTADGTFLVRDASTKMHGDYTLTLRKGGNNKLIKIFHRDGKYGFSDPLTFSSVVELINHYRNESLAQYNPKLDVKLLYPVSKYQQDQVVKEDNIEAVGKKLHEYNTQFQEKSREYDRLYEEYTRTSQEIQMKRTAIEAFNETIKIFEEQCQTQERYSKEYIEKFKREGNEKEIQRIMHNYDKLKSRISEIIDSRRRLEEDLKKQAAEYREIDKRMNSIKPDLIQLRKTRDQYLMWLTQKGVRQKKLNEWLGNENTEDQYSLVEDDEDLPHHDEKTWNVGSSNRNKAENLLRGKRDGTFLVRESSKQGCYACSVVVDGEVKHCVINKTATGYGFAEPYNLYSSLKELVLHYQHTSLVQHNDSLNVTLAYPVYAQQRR

CN(C(=O)CN1CCOCC1)c1ccc2sc3c(-c4cccc5c(=O)cc(N6CC7CCC(C6)O7)oc45)cccc3c2c1 [NU5455]
% inhibition (1 µM): 57%
inhibition at 1 µM: 57.5%
